Here are results for 19 compounds from patent US12655101B2, “Small molecules with antibacterial activity” (NEW MEXICO TECH UNIVERSITY RESEARCH PARK CORPORATION, priority 2021, dated 2026).

The MIC is the lowest concentration that inhibits growth of the organism.

The test system of one assay is S. aureus. The assay can be described thus: Evolution of resistance in S. aureus over 32 days. In kind it is cell-based. As to conditions: for development of resistance (increase in MIC): 32 days of sub-inhibitory exposure; for MIC: Staphylococcus aureus. An excerpt:
Over a period of 32 days, S. aureus cells were exposed to sub-inhibitory concentrations of the indicated compound, norfloxacin, or oxacillin and sub-cultured at the newly emerged, sub-inhibitory concentration.

The next assay has as its system MRSA ATCC BAA-44. The assay can be described thus: MIC on MRSA ATCC BAA-44. The assay is classed as cell-based, S. aureus. The note with it: for MIC: Staphylococcus aureus. Here is the method: MRSA BAA-44: MRSA ATCC BAA-44 was grown from a glycerol stock by placing a small volume of cells onto a Mueller-Hinton agar plate (MHA). The MHA plate was incubated overnight at 37° C. A single colony was used to inoculate Mueller-Hinton broth (MHB) to obtain a bacterial broth suspension. The MHB broth suspension was grown at 37° C. on a rotary shaking incubator (100 rpm) for 12 hours. The bacterial cell concentration was adjusted to ˜5×10^5 colony forming units per milliliter (CFU/mL) in MHB−/+10, 20, or 40% FBS using optical density (OD) at 595 nm. 500 μL aliquots of the adjusted bacterial cell suspension were placed into borosilicate glass tubes. The cell suspensions were treated with 100 μM compound of interest and serially diluted two-fold. The culture tubes were incubated for 18 hours at 37° C. Efficacy was either assessed visually or by adding 10% v/v MTT (5 mg/mL stock) after the 18 hour incubation period, where the cell suspensions were subsequently incubated for 10 minutes to allow the MTT reagent to carry out the colorimetric reaction.

For assay [1], the system named is A. baumannii ATCC BAA-1797. The assay can be described thus: MIC on A. baumannii ATCC BAA-1797. The assay is classed as cell-based. As to the method: A. baumannii: A. baumannii ATCC BAA-1797 was grown from a glycerol stock by placing a small volume of cells onto a MHA plate. The MHA plate was incubated overnight at 37° C. A single colony was used to inoculate MHB to obtain a bacterial broth suspension. The MHB broth suspension was grown at 37° C. on a rotary shaking incubator (100 rpm) for 12 hours. The bacterial cell concentration was adjusted to ˜5×10^5 CFU/mL in MHB or MHB+10%, 20% or 40% FBS using OD at 595 nm. 500 μL aliquots of the adjusted bacterial cell suspension were placed into borosilicate glass tubes. The cell suspensions were treated with a compound of interest, and the treatments were serially diluted two-fold. The culture tubes were incubated for 18 hours at 37° C. Efficacy was either assessed visually or by adding 10% v/v MTT (5 mg/mL stock) after the 18 hour incubation period. The cell suspensions were subsequently incubated for 10 minutes to allow the MTT reagent to carry out the colorimetric reaction. The OD was read at 595 nm.

[2] abbreviates: 0 h, read-out: Initial MIC Day 0.
[3] abbreviates: no serum (note in the cell), read-out: MIC (μM) in MRSA BAA-44.
Where [4] appears, read: Acinetobacter baumannii, ATCC 1797 / ATCC BAA-1797, 0% FBS, read-out: MIC (μM) in MDR A. baumannii ATCC 1797 0% FBS.
Setting [5] is: Acinetobacter baumannii, ATCC 1797 / ATCC BAA-1797, read-out: MIC (μM) in MDR A. baumannii ATCC 1797 40% FBS, 40% FBS.
Where [6] appears, read: 10% FBS, read-out: MIC (μM) in MRSA BAA-44 10% FBS.
[7] abbreviates: 0% FBS, read-out: MIC (μM) in MDR A. baumannii ATCC 1797 0% FBS.
[8] abbreviates: Acinetobacter baumannii, ATCC 1797 / ATCC BAA-1797, 10% FBS, read-out: MIC (μM) in MDR A. baumannii ATCC 1797 10% FBS.
Setting [9] is: Acinetobacter baumannii, ATCCBAA1797, 18 h, read-out: MIC in the presence of 40% FBS, A. baumannii ATCC BAA-1797, 40% FBS.
Where [10] appears, read: Acinetobacter baumannii, ATCCBAA1797, A. baumannii ATCC BAA-1797, absence of serum, read-out: MIC in the absence of serum.

Structures are written as SMILES. ≈ marks a conversion by molar mass, not a printed value. Read-outs that look alike come from different tables or passages of the source. A value given as a limit tells only on which side of the number the result lay.

On to `Cc1onc(-c2ccccc2)c1C(=O)N[C@@H]1C(=O)N2[C@@H]1SC(C)(C)[C@@H]2C(=O)O` [Oxacillin, reference compound], for which the “development of resistance (increase in MIC)” value in the assay on S. aureus is “Dramatic resistance”. The minimal inhibitory concentration (MIC) with S. aureus (setting [2]) is 0.25 µg/mL; in the assay with S. aureus (read-out: Final MIC Day 32) it was more than 200 µg/mL.

On to `Clc1ccc(/N=N/c2c[nH]c3ccccc23)cc1` [Compound 48, (E)-3-((4-chlorophenyl)diazenyl)-1H-indole], for which the minimum inhibitory concentration (MIC) with S. aureus (setting [2]) and in the assay with S. aureus (read-out: Final MIC Day 32) was 8 µM throughout.

Regarding `Clc1ccc(Oc2c(-c3ccc(Cl)cc3)[nH]c3ccc(Cl)cc23)cc1` [Compound 50, 5-chloro-3-(4-chlorophenoxy)-2-(4-chlorophenyl)-1H-indole], the values for the minimal inhibitory concentration (MIC) in the assay on S. aureus (setting [2]) and with S. aureus (read-out: Final MIC Day 32) were 0.25 to 0.5 µM and more than 32 µM, respectively.

Consider `Nc1cccc2c(S(=O)(=O)N/N=C/c3c[nH]c4cccc(OCc5ccccc5)c34)cccc12` [Compound 33, (E)-5-amino-N′-((4-(benzyloxy)-1H-indol-3-yl)methylene)naphthalene-1-sulfonohydrazide], for which the minimum inhibitory concentration (MIC) (with MRSA ATCC BAA-44 (setting [3]); in assay [1] (setting [4]); in assay [1] (setting [5])) was more than 100 µM throughout.

Take `C(=N\Nc1ncccn1)/c1c[nH]c2cccc(OCc3ccccc3)c12.O=C(O)C(F)(F)F` [Compound 40, (E)-2-((4-(benzyloxy)-1H-indol-3-yl)methylene)-1-(pyrimidin-2-yl)hydrazin-1-ium 2,2,2-trifluoroacetate]: the MIC (in the assay on MRSA ATCC BAA-44 (setting [6]); in assay [1] (setting [7])) was more than 100 µM each time. In addition, the “MIC (μM) in MDR A. baumannii ATCC 1797 40% FBS” value in assay [1] (40% FBS) was more than 100 µM.

As for `Clc1ccccc1N/N=C/c1c[nH]c2ccccc12` [Compound 12, (E)-3-((2-(2-chlorophenyl)hydrazineylidene)methyl)-1H-indole], the MIC is 25 µM (≈ 6.74 µg/mL) in the assay with MRSA ATCC BAA-44 (setting [3]), 12.5 µM (≈ 3.37 µg/mL) in assay [1] (setting [4]), more than 100 µM in assay [1] (setting [8]) and more than 100 µM in assay [1] (setting [5]).

As to `Cl.NCCCC(=O)Oc1cccc2[nH]cc(/C=N/Nc3ccc(F)cc3)c12` [Compound 42, (E)-4-((3-((2-(4-fluorophenyl)hydrazineylidene)methyl)-1H-indol-4-yl)oxy)-4-oxobutan-1-aminium chloride], the minimum inhibitory concentration (MIC) in the assay with MRSA ATCC BAA-44 (in FBS (note in the cell, percentage not given), read-out: MIC (μM) in MRSA BAA-44) is 100 µM; in assay [1] (setting [7]) it was less than 25 µM. Also, in the assay with MRSA ATCC BAA-44 (no serum (note in the cell)), the “MIC (μM) in MRSA BAA-44” value is on record as less than 25 in no μM. For the same compound, in assay [1] (40% FBS), the “MIC (μM) in MDR A. baumannii ATCC 1797 40% FBS” value was more than 100 µM.

As to `CC(=O)O.Nc1ccc(N/N=C/c2c[nH]c3cccc(OCc4ccccc4)c23)cc1` [Compound 39, (E)-1-(4-aminophenyl)-2-((4-(benzyloxy)-1H-indol-3-yl)methylene)hydrazin-1-ium acetate], the “MIC (μM) in MRSA BAA-44” value against MRSA ATCC BAA-44 (no serum (note in the cell)) is listed as 50 (no serum) μM. The minimum inhibitory concentration (MIC) in assay [1] (setting [7]) is on record as more than 100 µM. For the same compound, in assay [1] (40% FBS), the “MIC (μM) in MDR A. baumannii ATCC 1797 40% FBS” value was more than 100 µM.

As to `Nc1ccc(N/N=C/c2c[nH]c3cccc(OCc4ccccc4)c23)cc1` [Compound 38, (E)-4-(2-((4-(benzyloxy)-1H-indol-3-yl)methylene)hydrazineyl) benzenaminium chloride], the MIC (in the assay with MRSA ATCC BAA-44 (setting [3]); in assay [1] (setting [4]); in assay [1] (setting [5])) was more than 100 µM in each case.

As to `C(=N\Nc1ccccc1)/c1c[nH]c2ccccc12` [Compound 8, (E)-3-((2-phenylhydrazineylidene)methyl)-1H-indole], the minimal inhibitory concentration (MIC) with MRSA ATCC BAA-44 (setting [6]) was more than 100 µM; in assay [1] (setting [4]), 40 µM (≈ 9.41 µg/mL); in assay [1] (setting [8]), more than 100 µM; in assay [1] (setting [5]), 50 µM (≈ 11.8 µg/mL).

On to `N#CCC(=O)N/N=C/c1c[nH]c2ccccc12` [Compound 11, (E)-N′-((1H-indol-3-yl)methylene)-2-cyanoacetohydrazide], for which the MIC (in the assay with MRSA ATCC BAA-44 (setting [6]); in assay [1] (setting [4]); in assay [1] (setting [8]); in assay [1] (setting [5])) was more than 100 µM throughout.

On to `Cn1cc(/N=N/c2ccc(Br)cc2)c2c([N+](C)(C)C)cccc21` [Compound 2, (E)-3-((4-bromophenyl)diazenyl)-N,N,N,1-tetramethyl-1H-indol-4-aminium iodide], for which the MIC (in the assay on MRSA ATCC BAA-44 (setting [6]); in assay [1] (setting [4])) was more than 100 µM in each case.

In the case of `C(=N\Nc1ncccn1)/c1c[nH]c2ccccc12` [Compound 19, (E)-3-((2-(pyrimidin-2-yl)hydrazineylidene)methyl)-1H-indole], the MIC (in the assay with MRSA ATCC BAA-44 (setting [6]); in assay [1] (setting [4]); in assay [1] (setting [5])) was more than 100 µM each time.

Regarding `Brc1ccc2c(N/N=C/c3c[nH]c4cccc(OCc5ccccc5)c34)ccnc2c1` [Compound 43, (E)-4-(2-((4-(benzyloxy)-1H-indol-3-yl)methylene)hydrazineyl)-7-bromoquinoline], the MIC was more than 100 µM in the assay on MRSA ATCC BAA-44 (18 h, read-out: MIC in the presence of 40% FBS, MRSA ATCC BAA-44, 40% FBS); 6 µM (≈ 2.83 µg/mL) in the assay on MRSA ATCC BAA-44 (MRSA ATCC BAA-44, absence of serum, read-out: MIC in the absence of serum); more than 100 µM in the assay on MRSA ATCC BAA-44 (in 40% FBS (note in the cell), read-out: MIC (μM) in MRSA BAA-44); 6 µM (≈ 2.83 µg/mL) in the assay on MRSA ATCC BAA-44 (setting [3]); 6 µM (≈ 2.83 µg/mL) in assay [1] (setting [4]); more than 100 µM in assay [1] (setting [5]).

On to `COc1ccc(N/N=C/c2c[nH]c3cccc(OCc4ccccc4)c23)cc1` [Compound 30, (E)-4-(benzyloxy)-3-((2-(4-methoxyphenyl) hydrazineylidene)methyl)-1H-indole], for which the MIC was more than 100 µM in the assay on MRSA ATCC BAA-44 (setting [6]); more than 100 µM in assay [1] (setting [4]); more than 100 µM in assay [1] (setting [8]); more than 100 µM in assay [1] (setting [5]); 100 µM in assay [1] (setting [9]); 20 µM (≈ 7.43 µg/mL) in assay [1] (setting [10]).

`CCn1cc(C(=O)O)c(=O)c2cc(F)c(N3CCNCC3)cc21` [Norfloxacin, reference compound]: the “development of resistance (increase in MIC)” value in the assay on S. aureus was “Dramatic resistance”. Moreover, the figures for the minimum inhibitory concentration (MIC) in the assay on S. aureus (setting [2]) and with S. aureus (read-out: Final MIC Day 32) were 2 µg/mL and more than 100 µg/mL, respectively.

Regarding `CC(C)(C)OC(=O)N[C@@H](CCCNC(=N)N)C(=O)Oc1cccc2[nH]cc(/C=N/Nc3ccc(Cl)cc3)c12` [Compound 17, (E)-3-((2-(4-chlorophenyl)hydrazineylidene)methyl)-1H-indol-4-yl (tert-butoxycarbonyl) argininate], the MIC (in the assay with MRSA ATCC BAA-44 (setting [6]); in assay [1] (setting [4]); in assay [1] (setting [8]); in assay [1] (setting [5])) was more than 100 µM throughout.

Regarding `CC(C)(C)OC(=O)Nc1cccc2[nH]cc(/C=N/Nc3ccc(Cl)cc3)c12` [Compound 18], the MIC with MRSA ATCC BAA-44 (MRSA ATCC BAA-44, serum not stated, read-out: MIC) is 12.5 µM (≈ 4.81 µg/mL); in the assay with MRSA ATCC BAA-44 (setting [3]), 12.5 µM (≈ 4.81 µg/mL); in assay [1] (setting [4]), 3 µM (≈ 1.15 µg/mL); in assay [1] (setting [5]) it was more than 100 µM; in assay [1] (setting [9]), more than 100 µM; in assay [1] (setting [10]), 3 µM (≈ 1.15 µg/mL).

As for `C(=N\NC1=NCCCN1)/c1c[nH]c2cccc(OCc3ccccc3)c12` [Compound 35, (E)-2-(2-((4-(benzyloxy)-1H-indol-3-yl)methylene)hydrazineyl)-3,4,5,6-tetrahydropyrimidin-1-ium 2,2,2-trifluoroacetate], the minimum inhibitory concentration (MIC) with MRSA ATCC BAA-44 (setting [3]) is 50 µM (≈ 17.4 µg/mL); in assay [1] (setting [4]) it was more than 100 µM; in assay [1] (setting [5]), more than 100 µM.
